# Measurements reported in patent US8247211B2, “Glycopeptide antibiotics” (American Cyanamid Company, priority 2001, dated 2012).
# Key:
# Assay in all cases: In vitro antibacterial evaluation: minimum inhibitory concentration (MIC), broth dilution method
# Format in all cases: cell-based
# Enterococcus sp. = system: Enterococcus sp.
# Procedure, shortened: (§1)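 First, organisms are seeded at 5×10^5 CFU/mL into Muller-Hinton II […]. Next, antibiotic is applied across 64-0.06 μg/mL by broth dilution (NCCLS M7-A2). Finally, the lowest inhibitory concentration is recorded as MIC.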
# Escherichia coli [1] = system: Escherichia coli
# Procedure, shortened: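 Broth dilution per NCCLS M7-A2 in Muller-Hinton II […], inoculum 5×10^5 CFU/mL, antibiotic tested over 64-0.06 μg/mL. MIC is taken as the lowest concentration that inhibits growth. Panel includes recent clinical isolates resistant to methicillin, penicillin and/or vancomycin.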
# Staphylococcus sp. = conditions: 18 hours at 35° C.
# Procedure, shortened: as §1
# Escherichia coli [2] = system: Escherichia coli; remark: listed apart in the source
smiles,measurement,setting,value
"CC=C(C)C(=O)OC1C(CO)OC(OC2C(CO)OC(Oc3ccc(CC4NC(=O)C(C(C)c5ccccc5)NC(=O)CNC(=O)C(CO)NC(=O)C(C(O)C5CNC(=N)N5C5OC(CO)C(O)C(O)C5O)NC(=O)C(C(O)C5CNC(=N)N5)NC4=O)cc3)C(O)C2O)C(O)C1O (stereo not drawn) [Example 278b, Cyclo[glycyl-β-methylphenylalanyl-O-[4-O-[4-O-(2-methylbut-2-enoyl)hexopyranosyl]-hexopyranosyl]tyrosyl-3-(2-iminoimidazolidin-4-yl)seryl-3-(3-hexopyranosyl-2-imino-imidazolidin-4-yl)serylseryl]]",MIC Enterococcus avium (GC 4558),Enterococcus sp.,32 µg/mL
same,MIC Enterococcus faecalis (ATCC 29212),Enterococcus sp.,32 µg/mL
same,MIC Enterococcus faecalis (GC 4553),Enterococcus sp.,32 µg/mL
same,MIC Enterococcus faecalis (GC 4554),Enterococcus sp.,32 µg/mL
same,MIC Enterococcus faecalis (GC 6189),Enterococcus sp.,32 µg/mL
same,MIC Enterococcus faecium (GC 2243),Enterococcus sp.,32 µg/mL
same,MIC Enterococcus faecium (GC 4556),Enterococcus sp.,32 µg/mL
same,MIC Enterococcus faecium (GC 4557),Enterococcus sp.,8 µg/mL
same,MIC Escherichia coli (GC 4559),Escherichia coli [1],>64 µg/mL
same,MIC Escherichia coli (GC 4560),Escherichia coli [1],4 µg/mL
same,MIC Coagulase Negative Staphylococcus (GC 4547),Staphylococcus sp.,4 µg/mL
same,MIC Coagulase Negative Staphylococcus (GC 4547),Staphylococcus sp.; broth dilution,4 µg/mL
same,MIC Coagulase Negative Staphylococcus (GC 4548),Staphylococcus sp.,4 µg/mL
same,MIC Coagulase Negative Staphylococcus (GC 4548),Staphylococcus sp.; broth dilution,4 µg/mL
same,MIC Coagulase Negative Staphylococcus (GC 4549),Staphylococcus sp.,2 µg/mL
same,MIC Coagulase Negative Staphylococcus (GC 4549),Staphylococcus sp.; broth dilution,2 µg/mL
same,MIC Coagulase Negative Staphylococcus (GC 4551),Staphylococcus sp.,8 µg/mL
same,MIC Coagulase Negative Staphylococcus (GC 4551),Staphylococcus sp.; broth dilution,8 µg/mL
same,MIC Coagulase Negative Staphylococcus (GC 6257),Staphylococcus sp.,2 µg/mL
same,MIC Coagulase Negative Staphylococcus (GC 6257),Staphylococcus sp.; broth dilution,2 µg/mL
same,MIC Staphylococcus aureus (ATCC 29213),Staphylococcus sp.,8 µg/mL
same,MIC Staphylococcus aureus (ATCC 29213),Staphylococcus sp.; broth dilution,8 µg/mL
same,MIC Staphylococcus aureus (GC 1131),Staphylococcus sp.,8 µg/mL
same,MIC Staphylococcus aureus (GC 1131),Staphylococcus sp.; broth dilution,8 µg/mL
same,MIC Staphylococcus aureus (GC 3051),Staphylococcus sp.,4 µg/mL
same,MIC Staphylococcus aureus (GC 3051),Staphylococcus sp.; broth dilution,4 µg/mL
same,MIC Staphylococcus aureus (GC 3053),Staphylococcus sp.,8 µg/mL
same,MIC Staphylococcus aureus (GC 3053),Staphylococcus sp.; broth dilution,8 µg/mL
same,MIC Staphylococcus aureus (GC 4541),Staphylococcus sp.,8 µg/mL
same,MIC Staphylococcus aureus (GC 4541),Staphylococcus sp.; broth dilution,8 µg/mL
same,MIC Staphylococcus aureus (GC 4542),Staphylococcus sp.,8 µg/mL
same,MIC Staphylococcus aureus (GC 4542),Staphylococcus sp.; broth dilution,8 µg/mL
same,MIC Staphylococcus aureus (GC 4544),Staphylococcus sp.,8 µg/mL
same,MIC Staphylococcus aureus (GC 4544),Staphylococcus sp.; broth dilution,8 µg/mL
same,MIC Staphylococcus aureus (GC 4545),Staphylococcus sp.,4 µg/mL
same,MIC Staphylococcus aureus (GC 4545),Staphylococcus sp.; broth dilution,4 µg/mL
same,MIC Staphylococcus aureus-SMITH (GC 4543),Staphylococcus sp.,8 µg/mL
same,MIC Staphylococcus aureus-SMITH (GC 4543),Staphylococcus sp.; broth dilution,8 µg/mL
same,MIC Staphylococcus haemolyticus (GC 4546),Staphylococcus sp.,4 µg/mL
same,MIC Staphylococcus haemolyticus (GC 4546),Staphylococcus sp.; broth dilution,4 µg/mL
same,MIC Escherichia coli (ATCC 25922),Escherichia coli [2],>64 µg/mL
"CCC(C)C(=O)OC1C(CO)OC(OC2C(CO)OC(Oc3ccc(CC4NC(=O)C(C(C)c5ccccc5)NC(=O)CNC(=O)C(CO)NC(=O)C(C(O)C5CNC(=N)N5C5OC(CO)C(O)C(O)C5O)NC(=O)C(C(O)C5CNC(=N)N5)NC4=O)cc3)C(O)C2O)C(O)C1O (stereo not drawn) [Example 278c, Cyclo[glycyl-β-methylphenylalanyl-O-[4-O-[4-O-(2-methylbutanoyl)hexopyranosyl]hexopyranosyl]tyrosyl-3-(2-iminoimidazolidin-4-yl)seryl-3-(3-hexopyranosyl-2-iminoimidazolidin-4-yl)serylseryl]]",MIC Enterococcus avium (GC 4558),Enterococcus sp.,32 µg/mL
same,MIC Enterococcus faecalis (ATCC 29212),Enterococcus sp.,32 µg/mL
same,MIC Enterococcus faecalis (GC 4553),Enterococcus sp.,32 µg/mL
same,MIC Enterococcus faecalis (GC 4554),Enterococcus sp.,32 µg/mL
same,MIC Enterococcus faecalis (GC 6189),Enterococcus sp.,32 µg/mL
same,MIC Enterococcus faecium (GC 2243),Enterococcus sp.,32 µg/mL
same,MIC Enterococcus faecium (GC 4556),Enterococcus sp.,32 µg/mL
same,MIC Enterococcus faecium (GC 4557),Enterococcus sp.,8 µg/mL
same,MIC Escherichia coli (GC 4559),Escherichia coli [1],>64 µg/mL
same,MIC Escherichia coli (GC 4560),Escherichia coli [1],2 µg/mL
same,MIC Coagulase Negative Staphylococcus (GC 4547),Staphylococcus sp.,4 µg/mL
same,MIC Coagulase Negative Staphylococcus (GC 4547),Staphylococcus sp.; broth dilution,4 µg/mL
same,MIC Coagulase Negative Staphylococcus (GC 4548),Staphylococcus sp.,2 µg/mL
same,MIC Coagulase Negative Staphylococcus (GC 4548),Staphylococcus sp.; broth dilution,2 µg/mL
same,MIC Coagulase Negative Staphylococcus (GC 4549),Staphylococcus sp.,2 µg/mL
same,MIC Coagulase Negative Staphylococcus (GC 4549),Staphylococcus sp.; broth dilution,2 µg/mL
same,MIC Coagulase Negative Staphylococcus (GC 4551),Staphylococcus sp.,8 µg/mL
same,MIC Coagulase Negative Staphylococcus (GC 4551),Staphylococcus sp.; broth dilution,8 µg/mL
same,MIC Coagulase Negative Staphylococcus (GC 6257),Staphylococcus sp.,2 µg/mL
same,MIC Coagulase Negative Staphylococcus (GC 6257),Staphylococcus sp.; broth dilution,2 µg/mL
same,MIC Staphylococcus aureus (ATCC 29213),Staphylococcus sp.,4 µg/mL
same,MIC Staphylococcus aureus (ATCC 29213),Staphylococcus sp.; broth dilution,4 µg/mL
same,MIC Staphylococcus aureus (GC 1131),Staphylococcus sp.,8 µg/mL
same,MIC Staphylococcus aureus (GC 1131),Staphylococcus sp.; broth dilution,8 µg/mL
same,MIC Staphylococcus aureus (GC 3051),Staphylococcus sp.,2 µg/mL
same,MIC Staphylococcus aureus (GC 3051),Staphylococcus sp.; broth dilution,2 µg/mL
same,MIC Staphylococcus aureus (GC 3053),Staphylococcus sp.,8 µg/mL
same,MIC Staphylococcus aureus (GC 3053),Staphylococcus sp.; broth dilution,8 µg/mL
same,MIC Staphylococcus aureus (GC 4541),Staphylococcus sp.,4 µg/mL
same,MIC Staphylococcus aureus (GC 4541),Staphylococcus sp.; broth dilution,4 µg/mL
same,MIC Staphylococcus aureus (GC 4542),Staphylococcus sp.,4 µg/mL
same,MIC Staphylococcus aureus (GC 4542),Staphylococcus sp.; broth dilution,4 µg/mL
same,MIC Staphylococcus aureus (GC 4544),Staphylococcus sp.,4 µg/mL
same,MIC Staphylococcus aureus (GC 4544),Staphylococcus sp.; broth dilution,4 µg/mL
same,MIC Staphylococcus aureus (GC 4545),Staphylococcus sp.,4 µg/mL
same,MIC Staphylococcus aureus (GC 4545),Staphylococcus sp.; broth dilution,4 µg/mL
same,MIC Staphylococcus aureus-SMITH (GC 4543),Staphylococcus sp.,4 µg/mL
same,MIC Staphylococcus aureus-SMITH (GC 4543),Staphylococcus sp.; broth dilution,4 µg/mL
same,MIC Staphylococcus haemolyticus (GC 4546),Staphylococcus sp.,2 µg/mL
same,MIC Staphylococcus haemolyticus (GC 4546),Staphylococcus sp.; broth dilution,2 µg/mL
same,MIC Escherichia coli (ATCC 25922),Escherichia coli [2],>64 µg/mL
